This note sets out measurements from ChEMBL document CHEMBL1144852, “Optimization of a dihydropyrrolopyrazole series of transforming growth factor-beta type I receptor kinase domain inhibitors: discovery of an orally bioavailable transforming growth factor-beta receptor type I inhibitor as antitumor agent” (J Med Chem, 2008).

A short description of data set [1]: Antiproliferative activity against mink Mv1Lu-p3TP-Lux cells by luciferase reporter assay. It counts as functional, cell-based, Neovison vison. The following applies: Neogale vison.
The test system of data set [2] is NIH3T3. The experiment in a line: Antiproliferative activity against mouse NIH3T3 cells by [3H]thymidine assay. It is filed as functional, cell-based.
Data set [3] concerns the target TGF-beta receptor type-1 (Homo sapiens, UniProt P36897, T204D). In words: Inhibition of TGFbeta type receptor 1 ALK5 (T204D) expressed in Sf9 cells.
Data set [4] is described as follows: Metabolic stability in rat microsomes. Note: time not given here. It is filed as ADME, Microsome.
Data set [5] has as its system Liver microsomes. In words: Metabolic stability in human liver microsomes. Note: time not given here. It counts as ADME, Microsome.
In data set [6] the test system is Caco-2. The experiment in a line: Permeability from apical to basolateral side of human Caco-2 cell membrane. It counts as ADME, cell-based.
Data set [7] relates to Mus musculus. In words: Inhibition of TGFbeta type receptor 1 in human Calu6 cells xenografted mouse at 50 mg/kg, po by single point IVTI assay. Also on record: scale not given: the % may be the effect or the level left. It counts as functional, Calu-6.
In data set [8] the test system is Mus musculus. The experiment in a line: Inhibition of TGFbeta type receptor 1 in orally dosed human Calu6 cells xenografted mouse by IVTI […] assay. It is filed as functional, organism-based. The following applies: Calu-6.

For the compound `Cc1cccc(-c2nn3c(c2-c2ccnc4ccc(OC(F)(F)F)cc24)CCC3)n1`, the values for the IC50 in data set [1], in data set [2] and in data set [3] were 201 nM, 254 nM and 141 nM, respectively.

Regarding `Clc1cc(-c2c(-c3ccccn3)nn3c2CCC3)c2ccccc2n1`, the IC50 was over 20000 nM in data set [1], over 20000 nM in data set [2] and 19800 nM in data set [3].

`CCSc1cc(-c2c(-c3ccccn3)nn3c2CCC3)c2ccccc2n1`: the IC50 in data set [1] and in data set [3] was over 20000 nM throughout.

Regarding `c1ccc(-c2n[nH]cc2-c2ccnc3ccccc23)nc1`, the Stability in data set [4] was 98%; in data set [5], 22%. In data set [2], this compound displayed an IC50 of 81 nM. Moreover, the permeability in data set [6] stood at 76%.

Consider `COc1cc(-c2c(-c3ccccn3)nn3c2CCC3)c2ccccc2n1`, for which the IC50 in data set [3] is over 20000 nM.

As for `Cc1cccc(-c2nn3c(c2-c2ccnc4c(F)cccc24)CCC3)n1`, the IC50 in data set [1] turned out to be 951 nM; in data set [2] it was 1030 nM; in data set [3], 928 nM.

`Oc1ccc2c(-c3c(-c4ccccn4)nn4c3CCC4)ccnc2c1`: the IC50 in data set [1] is 200 nM; in data set [2], 420 nM; in data set [3], 160 nM.

Consider `O=C(O)c1ccc(Oc2ccc3c(-c4c(-c5ccccn5)nn5c4CCC5)ccnc3c2)cc1`, for which the IC50 in data set [1] is over 20000 nM; in data set [2], over 20000 nM; in data set [3], 4800 nM.

As to `Cc1cccc(-c2nn3c(c2-c2ccnc4ccc(C(=O)NCCN(C)C)cc24)CCC3)n1`, the IC50 stood at 468 nM in data set [1], 2270 nM in data set [2] and 193 nM in data set [3].

`c1ccc(-c2nn3c(c2-c2cc(N4CCCC4)nc4ccccc24)CCC3)nc1`: the IC50 in data set [1] and in data set [3] was over 20000 nM throughout.

As to `CN1CCCC1CCCOc1ccc2c(-c3c(-c4ccccn4)nn4c3CCC4)ccnc2c1` (stereo not drawn), the Activity in data set [7] amounted to 75%. This compound gave an EC50 in data set [8] of 377 nM. The values for the IC50 in data set [1], in data set [2] and in data set [3] were 17 nM, 20 nM and 72 nM, respectively.

Consider `CN1CCN(CCOc2ccc3c(-c4c(-c5ccccn5)nn5c4CCC5)ccnc3c2)CC1`, for which the Activity in data set [7] is listed as 73%. Moreover, the midpoint of the response in data set [8], the EC50, lay at 919 nM. Further, the values for the IC50 in data set [1], in data set [2] and in data set [3] were 38 nM, 54 nM and 100 nM, respectively.

`CN1CCN(C(=O)COc2ccc3c(-c4c(-c5ccccn5)nn5c4CCC5)ccnc3c2)CC1`: the IC50 is 260 nM in data set [1], 730 nM in data set [2] and 49 nM in data set [3].

For the compound `CN(C)Cc1ccc(Oc2ccc3c(-c4c(-c5ccccn5)nn5c4CCC5)ccnc3c2)cc1`, inhibition in data set [3] was half-maximal at 750 nM (IC50).

As for `Cc1cccc(-c2nn3c(c2-c2ccnc4ccc(Br)cc24)CCC3)n1`, the IC50 in data set [1] was 55 nM; in data set [2], 338 nM; in data set [3] it was 89 nM.

Turning to `c1ccc(-c2nn3c(c2-c2ccnc4cc(OCC5CCCO5)ccc24)CCC3)nc1` (stereo not drawn), the Stability in data set [4] was found to be 97%; in data set [5], 55%. In addition, the IC50 in data set [1] stood at 80 nM; in data set [2], 250 nM; in data set [3] it was 130 nM. For the same compound, the permeability in data set [6] was determined as 42%.

On to `CN(C)C(=O)c1ccc(Oc2ccc3c(-c4c(-c5ccccn5)nn5c4CCC5)ccnc3c2)cc1`, for which the IC50 in data set [1] turned out to be 15000 nM; in data set [2], 5100 nM; in data set [3] it was 1100 nM.

With `N#Cc1ccc(Oc2ccc3c(-c4c(-c5ccccn5)nn5c4CCC5)ccnc3c2)cc1`, in data set [3], the IC50 amounted to 1200 nM.

On to `COC(=O)c1ccc2nccc(-c3c(-c4cccc(C)n4)nn4c3CCC4)c2c1`, for which the IC50 was 403 nM in data set [1] and 526 nM in data set [3].

In data set [3], `NC(=O)c1ccc(Oc2ccc3c(-c4c(-c5ccccn5)nn5c4CCC5)ccnc3c2)cc1` registered an IC50 of 1100 nM.

For `COc1cc(OC)c2nccc(-c3c(-c4cccc(C)n4)nn4c3CCC4)c2c1`, the IC50 in data set [1] is 7200 nM; in data set [2], over 20000 nM; in data set [3], 3810 nM.

Turning to `CN(C)CCCCCOc1ccc2c(-c3c(-c4ccccn4)nn4c3CCC4)ccnc2c1`, the IC50 was 24 nM in data set [1], 51 nM in data set [2] and 47 nM in data set [3].
